In ChEMBL document CHEMBL1914297, “Regulators of G protein signaling (RGS) proteins as drug targets: modulating G-protein-coupled receptor (GPCR) signal transduction” (J Med Chem, 2011):
Where a SMILES comes first, the peptide text is derived from it. Bridges are numbered along the chain shown (N, C = ends).

Key:
Homo sapiens [1] = species on record: Homo sapiens; experiment: Selectivity ratio of IC50 for human RGS4 expressed in Escherichia coli BL21 (DE3) to IC50 for human RGS8 expressed in Escherichia coli BL21 (DE3)
Homo sapiens [2] = species on record: Homo sapiens; experiment: Selectivity ratio of IC50 for human RGS4 expressed in Escherichia coli BL21 (DE3) to IC50 for human RGS16 expressed in Escherichia coli BL21 (DE3)
[3] = molecular target: Regulator of G-protein signaling 4 (Homo sapiens) (UniProt P49798); experiment: Inhibition of RGS4 GTPase accelrating activity
[4] = Selectivity for RGS4 over RGS8
[5] = Selectivity for RGS4 over RGS16

Sequence of Regulator of G-protein signaling 4 (Homo sapiens) (P49798 whole entry, looked up): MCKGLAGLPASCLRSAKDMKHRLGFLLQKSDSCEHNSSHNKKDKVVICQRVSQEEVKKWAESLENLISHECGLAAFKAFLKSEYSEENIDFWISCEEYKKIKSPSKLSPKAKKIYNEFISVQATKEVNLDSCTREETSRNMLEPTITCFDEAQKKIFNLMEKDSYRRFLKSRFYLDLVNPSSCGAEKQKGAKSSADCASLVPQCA

`Cc1cccn2c(=O)c(/C=C(\C#N)c3nc4ccccc4s3)c(Oc3ccc(F)cc3)nc12` showed a Ratio IC50 (Homo sapiens [1]) of 10 and a Ratio IC50 (Homo sapiens [2]) of 10.
In the case of `Cc1cccc(Oc2nc3c(C)cccn3c(=O)c2/C=C(\C#N)c2nc3ccccc3s2)c1`, the Ratio IC50 (Homo sapiens [1]) was 10 and the Ratio IC50 (Homo sapiens [2]) was 10.
For `CC[C@H](C)[C@@H]1NC(=O)CNC(=O)[C@H]([C@@H](C)O)NC(=O)[C@@H](NC(=O)[C@H](CCCCN)NC(=O)[C@@H](NC(C)=O)C(C)C)CSSC[C@@H](C(=O)N[C@@H](CCC(=O)O)C(N)=O)NC1=O` (Ac-VKCTGICE-NH2; disulfide 3-7), the INH [3] was 26 µM.
`Cc1ccc(-n2sc(=O)n(Cc3ccc(F)cc3)c2=O)cc1` gave a Selectivity ratio [4] of 100 and a Selectivity ratio [5] of 100.
